Results as given in ChEMBL document CHEMBL3885881, “DrugMatrix”.

Organism: Rattus norvegicus
Assay: DrugMatrix - Regimen: Daily Repeat
Type: toxicity, organism-based, Sprague-Dawley
Set-up: regimen Daily Repeat, gender Male, age 6-8 weeks
Conditions: in vivo, po, route oral GAVAGE, vehicle 100 % WATER; for URIC ACID / ALANINE AMINOTRANSFERASE / ALBUMIN / ALKALINE PHOSPHATASE / ASPARTATE AMINOTRANSFERASE / BLOOD UREA NITROGEN / CARBON DIOXIDE / CHLORIDE / CHOLESTEROL / CREATINE PHOSPHOKINASE / CREATININE / GLUCOSE / LACTATE DEHYDROGENASE / LIPASE / PHOSPHORUS / POTASSIUM / SODIUM / TOTAL BILIRUBIN / TOTAL PROTEIN: tissue Plasma; for ABSOLUTE BASOPHIL / ABSOLUTE EOSINOPHIL / ABSOLUTE LYMPHOCYTE / ABSOLUTE MONOCYTE / ABSOLUTE SEGMENTED NEUTROPHIL / BASOPHIL / EOSINOPHIL / ERYTHROCYTE COUNT / HEMATOCRIT / HEMOGLOBIN / LEUKOCYTE COUNT / LYMPHOCYTE / MEAN CORPUSCULAR HEMOGLOBIN / MEAN CORPUSCULAR HEMOGLOBIN CONCENTRATION / MONOCYTE / NEUTROPHIL / NUCLEATED RED BLOOD CELLS / PLATELET COUNT: tissue Blood
[1] = 50 mg/kg, 120 h, dose level Low, time 5 day
[2] = 1750 mg/kg, 72 h, dose level High, time 3 day
[3] = 1750 mg/kg, 120 h, dose level High, time 5 day

C[C@H](CS)C(=O)N1CCC[C@H]1C(=O)O [CAPTOPRIL]
URIC ACID (50 mg/kg, 72 h, dose level Low, time 3 day): 1.37 mg/dL | ABSOLUTE BASOPHIL [1]: 0 CELLS/uL | ABSOLUTE EOSINOPHIL [1]: 130 CELLS/uL | ABSOLUTE LYMPHOCYTE [1]: 12459.67 CELLS/uL | ABSOLUTE MONOCYTE [1]: 96.33 CELLS/uL | ABSOLUTE SEGMENTED NEUTROPHIL [1]: 1180.67 CELLS/uL | BASOPHIL [1]: 0% | EOSINOPHIL [1]: 1% | ERYTHROCYTE COUNT [1]: 5.51 x10E6/uL | HEMATOCRIT [1]: 34.87% | HEMOGLOBIN [1]: 14.1 G/DL | LEUKOCYTE COUNT [1]: 13.87 x10E3/uL | LYMPHOCYTE [1]: 90% | MEAN CORPUSCULAR HEMOGLOBIN [1]: 25.63 pg | MEAN CORPUSCULAR HEMOGLOBIN CONCENTRATION [1]: 40.43 G/DL | MONOCYTE [1]: 0.67% | NEUTROPHIL [1]: 8.33% | NUCLEATED RED BLOOD CELLS [1]: 0.33 /100WBC | PLATELET COUNT [1]: 1341.67 x10E3/uL | ALANINE AMINOTRANSFERASE [1]: 46.33 u/L | ALBUMIN [1]: 4.37 G/DL | ALKALINE PHOSPHATASE [1]: 377.67 u/L | ASPARTATE AMINOTRANSFERASE [1]: 83.33 u/L | BLOOD UREA NITROGEN [1]: 16.67 mg/dL | CARBON DIOXIDE [1]: 30.67 mmol/L | CHLORIDE [1]: 100.33 MEQ/L | CHOLESTEROL [1]: 79.67 mg/dL | CREATINE PHOSPHOKINASE [1]: 326.33 u/L | CREATININE [1]: 0.2 mg/dL | GLUCOSE [1]: 140.67 mg/dL | LACTATE DEHYDROGENASE [1]: 506 u/L | LIPASE [1]: 12.67 u/L | PHOSPHORUS [1]: 10.43 mg/dL | POTASSIUM [1]: 6.71 MEQ/L | SODIUM [1]: 141.93 MEQ/L | TOTAL BILIRUBIN [1]: 0.2 mg/dL | TOTAL PROTEIN [1]: 6.37 G/DL | URIC ACID [1]: 1.4 mg/dL | ABSOLUTE BASOPHIL [2]: 0 CELLS/uL | ABSOLUTE EOSINOPHIL [2]: 0 CELLS/uL | ABSOLUTE LYMPHOCYTE [2]: 14323.33 CELLS/uL | ABSOLUTE MONOCYTE [2]: 220.67 CELLS/uL | ABSOLUTE SEGMENTED NEUTROPHIL [2]: 1556 CELLS/uL | BASOPHIL [2]: 0% | EOSINOPHIL [2]: 0% | ERYTHROCYTE COUNT [2]: 5.51 x10E6/uL | HEMATOCRIT [2]: 34.3% | HEMOGLOBIN [2]: 13.6 G/DL | LEUKOCYTE COUNT [2]: 16.1 x10E3/uL | LYMPHOCYTE [2]: 89% | MEAN CORPUSCULAR HEMOGLOBIN [2]: 24.73 pg | MEAN CORPUSCULAR HEMOGLOBIN CONCENTRATION [2]: 39.67 G/DL | MONOCYTE [2]: 1.33% | NEUTROPHIL [2]: 9.67% | NUCLEATED RED BLOOD CELLS [2]: 0.67 /100WBC | PLATELET COUNT [2]: 1393 x10E3/uL | ALANINE AMINOTRANSFERASE [2]: 54.67 u/L | ALBUMIN [2]: 4.07 G/DL | ALKALINE PHOSPHATASE [2]: 365.33 u/L | ASPARTATE AMINOTRANSFERASE [2]: 87 u/L | BLOOD UREA NITROGEN [2]: 25.67 mg/dL | CARBON DIOXIDE [2]: 24 mmol/L | CHLORIDE [2]: 100.67 MEQ/L | CHOLESTEROL [2]: 71.67 mg/dL | CREATINE PHOSPHOKINASE [2]: 349.33 u/L | CREATININE [2]: 0.16 mg/dL | GLUCOSE [2]: 152.33 mg/dL | LACTATE DEHYDROGENASE [2]: 356 u/L | LIPASE [2]: 10.33 u/L | PHOSPHORUS [2]: 11.53 mg/dL | SODIUM [2]: 139.9 MEQ/L | TOTAL BILIRUBIN [2]: 0.2 mg/dL | TOTAL PROTEIN [2]: 5.73 G/DL | URIC ACID [2]: 1.27 mg/dL | ABSOLUTE BASOPHIL [3]: 0 CELLS/uL | ABSOLUTE EOSINOPHIL [3]: 0 CELLS/uL | ABSOLUTE LYMPHOCYTE [3]: 12668 CELLS/uL | ABSOLUTE MONOCYTE [3]: 119.33 CELLS/uL | ABSOLUTE SEGMENTED NEUTROPHIL [3]: 946 CELLS/uL | BASOPHIL [3]: 0% | EOSINOPHIL [3]: 0% | ERYTHROCYTE COUNT [3]: 5.54 x10E6/uL | HEMATOCRIT [3]: 34.7% | HEMOGLOBIN [3]: 13.83 G/DL | LEUKOCYTE COUNT [3]: 13.73 x10E3/uL | LYMPHOCYTE [3]: 92.33% | MEAN CORPUSCULAR HEMOGLOBIN [3]: 25.03 pg | MEAN CORPUSCULAR HEMOGLOBIN CONCENTRATION [3]: 39.9 G/DL | MONOCYTE [3]: 1% | NEUTROPHIL [3]: 6.67% | NUCLEATED RED BLOOD CELLS [3]: 0 /100WBC | PLATELET COUNT [3]: 1353.67 x10E3/uL | ALANINE AMINOTRANSFERASE [3]: 53.67 u/L | ALBUMIN [3]: 4.13 G/DL | ALKALINE PHOSPHATASE [3]: 415 u/L | ASPARTATE AMINOTRANSFERASE [3]: 102 u/L | BLOOD UREA NITROGEN [3]: 39.33 mg/dL | CARBON DIOXIDE [3]: 24.33 mmol/L | CHLORIDE [3]: 102.33 MEQ/L | CHOLESTEROL [3]: 70.33 mg/dL | CREATINE PHOSPHOKINASE [3]: 594.67 u/L | CREATININE [3]: 0.33 mg/dL | GLUCOSE [3]: 145.33 mg/dL | LACTATE DEHYDROGENASE [3]: 1114.33 u/L | LIPASE [3]: 11 u/L | PHOSPHORUS [3]: 10.47 mg/dL | POTASSIUM [3]: 6.84 MEQ/L | SODIUM [3]: 141.27 MEQ/L | TOTAL BILIRUBIN [3]: 0.23 mg/dL | TOTAL PROTEIN [3]: 6.03 G/DL | URIC ACID [3]: 1.87 mg/dL
